Measured values taken from ChEMBL document CHEMBL5291721, “A preclinical secondary pharmacology resource illuminates target-adverse drug reaction associations of marketed drugs” (Nat Commun, 2023).

Tests used:
[1] = biological target: cGMP-inhibited 3',5'-cyclic phosphodiesterase 3A (Homo sapiens, UniProt Q14432); assay type: functional
[2] = biological target: Sodium-dependent dopamine transporter (Homo sapiens, UniProt Q01959)
[3] = biological target: Voltage-dependent L-type calcium channel subunit alpha-1C (Rattus norvegicus, UniProt P22002); assay type: functional
[4] = biological target: Gamma-aminobutyric acid receptor subunit alpha-1 (Rattus norvegicus, UniProt P62813); assay type: functional
Mu-type opioid receptor [5] = biological target: T1, Mu-type opioid receptor (Homo sapiens, UniProt P35372)
Glucocorticoid receptor = biological target: T2, Glucocorticoid receptor (Homo sapiens, UniProt P04150)
T2 sequence (P04150 whole entry): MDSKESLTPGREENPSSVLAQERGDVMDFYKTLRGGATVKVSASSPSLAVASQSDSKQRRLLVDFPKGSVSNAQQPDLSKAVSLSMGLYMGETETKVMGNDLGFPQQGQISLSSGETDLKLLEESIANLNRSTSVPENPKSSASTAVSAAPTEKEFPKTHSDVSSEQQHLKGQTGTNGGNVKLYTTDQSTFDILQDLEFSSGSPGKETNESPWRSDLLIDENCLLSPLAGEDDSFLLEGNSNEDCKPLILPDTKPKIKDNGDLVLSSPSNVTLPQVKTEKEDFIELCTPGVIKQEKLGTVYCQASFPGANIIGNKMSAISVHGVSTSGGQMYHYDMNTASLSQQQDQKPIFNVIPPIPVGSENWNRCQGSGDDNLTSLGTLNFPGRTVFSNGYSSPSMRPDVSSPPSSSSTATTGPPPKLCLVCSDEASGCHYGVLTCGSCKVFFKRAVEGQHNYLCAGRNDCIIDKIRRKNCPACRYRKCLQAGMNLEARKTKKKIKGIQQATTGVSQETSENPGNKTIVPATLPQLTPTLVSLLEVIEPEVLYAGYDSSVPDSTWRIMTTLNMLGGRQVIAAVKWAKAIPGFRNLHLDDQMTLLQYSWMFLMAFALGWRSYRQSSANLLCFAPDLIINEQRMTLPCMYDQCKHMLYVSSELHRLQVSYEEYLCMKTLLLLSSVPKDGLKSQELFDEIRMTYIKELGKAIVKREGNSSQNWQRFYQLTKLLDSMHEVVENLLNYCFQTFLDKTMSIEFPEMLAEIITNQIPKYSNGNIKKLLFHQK

Histamine H1 receptor = Histamine H1 receptor (Homo sapiens, UniProt P35367)
[6] = biological target: Neuronal acetylcholine receptor subunit alpha-4 (Homo sapiens, UniProt P43681)
Endothelin-1 receptor = biological target: T3, Endothelin-1 receptor (Homo sapiens, UniProt P25101)
T3 sequence (P25101 whole entry): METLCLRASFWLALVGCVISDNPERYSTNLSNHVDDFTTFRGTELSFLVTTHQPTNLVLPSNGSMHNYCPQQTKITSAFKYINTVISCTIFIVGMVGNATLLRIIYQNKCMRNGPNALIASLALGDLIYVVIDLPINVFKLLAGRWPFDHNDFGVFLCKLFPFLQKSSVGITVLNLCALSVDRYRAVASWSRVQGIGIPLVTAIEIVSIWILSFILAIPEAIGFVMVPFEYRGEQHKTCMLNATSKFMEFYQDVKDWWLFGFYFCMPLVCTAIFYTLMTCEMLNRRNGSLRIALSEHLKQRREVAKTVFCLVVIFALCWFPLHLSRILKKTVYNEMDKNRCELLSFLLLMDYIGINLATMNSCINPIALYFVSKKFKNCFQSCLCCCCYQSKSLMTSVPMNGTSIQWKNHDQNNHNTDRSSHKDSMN

D(3) dopamine receptor = D(3) dopamine receptor (Homo sapiens, UniProt P35462)
[7] = biological target: Muscarinic acetylcholine receptor M3 (Homo sapiens, UniProt P20309)
Cannabinoid receptor 1 = Cannabinoid receptor 1 (Homo sapiens, UniProt P21554); assay type: functional, cell-based
[8] = biological target: T4, Alpha-2A adrenergic receptor (Homo sapiens, UniProt P08913); assay type: functional, cell-based
T4 sequence (P08913 whole entry): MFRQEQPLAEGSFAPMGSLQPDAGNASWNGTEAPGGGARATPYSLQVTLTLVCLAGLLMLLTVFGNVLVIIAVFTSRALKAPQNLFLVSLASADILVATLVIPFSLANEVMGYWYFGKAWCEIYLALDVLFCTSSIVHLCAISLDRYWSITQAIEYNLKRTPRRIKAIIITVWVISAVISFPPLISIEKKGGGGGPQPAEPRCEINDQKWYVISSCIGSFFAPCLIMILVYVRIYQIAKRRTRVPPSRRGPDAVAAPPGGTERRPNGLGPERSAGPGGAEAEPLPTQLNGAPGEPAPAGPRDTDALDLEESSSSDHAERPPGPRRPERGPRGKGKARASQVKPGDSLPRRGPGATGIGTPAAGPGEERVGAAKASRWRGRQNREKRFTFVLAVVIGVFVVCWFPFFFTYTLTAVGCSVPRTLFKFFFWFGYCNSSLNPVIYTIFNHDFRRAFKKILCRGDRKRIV

Mu-type opioid receptor [9] = biological target: T1, Mu-type opioid receptor; assay: biochemical; assay type: functional
[10] = biological target: 5-hydroxytryptamine receptor 2A (Homo sapiens, UniProt P28223); assay type: functional, cell-based
Note: assay procedure not described here.

Chain of D(3) dopamine receptor (P35462 whole entry): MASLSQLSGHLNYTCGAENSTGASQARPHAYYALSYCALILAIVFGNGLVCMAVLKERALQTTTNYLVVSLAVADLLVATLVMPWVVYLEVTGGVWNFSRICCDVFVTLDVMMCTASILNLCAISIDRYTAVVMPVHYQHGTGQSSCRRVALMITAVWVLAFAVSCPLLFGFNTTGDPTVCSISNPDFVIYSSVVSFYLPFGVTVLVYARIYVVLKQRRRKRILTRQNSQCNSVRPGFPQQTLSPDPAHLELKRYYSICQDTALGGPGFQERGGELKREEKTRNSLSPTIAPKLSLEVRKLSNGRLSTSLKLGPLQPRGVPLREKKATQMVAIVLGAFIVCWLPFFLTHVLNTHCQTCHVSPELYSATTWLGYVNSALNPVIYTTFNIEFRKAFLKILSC
Chain of Histamine H1 receptor (P35367 whole entry): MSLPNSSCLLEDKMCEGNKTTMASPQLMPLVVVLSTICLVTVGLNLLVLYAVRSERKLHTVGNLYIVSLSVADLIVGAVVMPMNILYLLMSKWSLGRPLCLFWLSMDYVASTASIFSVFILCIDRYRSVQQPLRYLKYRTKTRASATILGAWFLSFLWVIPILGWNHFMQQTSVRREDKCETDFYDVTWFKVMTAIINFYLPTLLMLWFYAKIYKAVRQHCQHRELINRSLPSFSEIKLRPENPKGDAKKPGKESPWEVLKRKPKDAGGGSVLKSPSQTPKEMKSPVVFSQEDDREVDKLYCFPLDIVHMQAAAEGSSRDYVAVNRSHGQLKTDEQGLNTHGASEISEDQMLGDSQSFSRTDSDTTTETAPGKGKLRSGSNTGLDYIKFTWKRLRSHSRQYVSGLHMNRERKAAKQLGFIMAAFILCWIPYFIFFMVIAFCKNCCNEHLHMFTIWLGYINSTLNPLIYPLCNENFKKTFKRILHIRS
Chain of Gamma-aminobutyric acid receptor subunit alpha-1 (P62813 whole entry): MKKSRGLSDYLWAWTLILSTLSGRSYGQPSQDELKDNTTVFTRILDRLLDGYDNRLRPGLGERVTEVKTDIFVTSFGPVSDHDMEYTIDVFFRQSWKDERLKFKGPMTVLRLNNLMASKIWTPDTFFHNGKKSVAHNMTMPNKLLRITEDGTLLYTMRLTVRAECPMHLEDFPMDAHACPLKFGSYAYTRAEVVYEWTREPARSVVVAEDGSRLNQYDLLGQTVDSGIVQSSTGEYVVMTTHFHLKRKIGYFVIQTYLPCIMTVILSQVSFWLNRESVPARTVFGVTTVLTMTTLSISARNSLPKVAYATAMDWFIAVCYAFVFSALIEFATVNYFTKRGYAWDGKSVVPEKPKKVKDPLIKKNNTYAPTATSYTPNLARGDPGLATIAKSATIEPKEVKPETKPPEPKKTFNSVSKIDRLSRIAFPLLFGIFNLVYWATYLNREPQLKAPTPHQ
Chain of cGMP-inhibited 3',5'-cyclic phosphodiesterase 3A (Q14432 whole entry): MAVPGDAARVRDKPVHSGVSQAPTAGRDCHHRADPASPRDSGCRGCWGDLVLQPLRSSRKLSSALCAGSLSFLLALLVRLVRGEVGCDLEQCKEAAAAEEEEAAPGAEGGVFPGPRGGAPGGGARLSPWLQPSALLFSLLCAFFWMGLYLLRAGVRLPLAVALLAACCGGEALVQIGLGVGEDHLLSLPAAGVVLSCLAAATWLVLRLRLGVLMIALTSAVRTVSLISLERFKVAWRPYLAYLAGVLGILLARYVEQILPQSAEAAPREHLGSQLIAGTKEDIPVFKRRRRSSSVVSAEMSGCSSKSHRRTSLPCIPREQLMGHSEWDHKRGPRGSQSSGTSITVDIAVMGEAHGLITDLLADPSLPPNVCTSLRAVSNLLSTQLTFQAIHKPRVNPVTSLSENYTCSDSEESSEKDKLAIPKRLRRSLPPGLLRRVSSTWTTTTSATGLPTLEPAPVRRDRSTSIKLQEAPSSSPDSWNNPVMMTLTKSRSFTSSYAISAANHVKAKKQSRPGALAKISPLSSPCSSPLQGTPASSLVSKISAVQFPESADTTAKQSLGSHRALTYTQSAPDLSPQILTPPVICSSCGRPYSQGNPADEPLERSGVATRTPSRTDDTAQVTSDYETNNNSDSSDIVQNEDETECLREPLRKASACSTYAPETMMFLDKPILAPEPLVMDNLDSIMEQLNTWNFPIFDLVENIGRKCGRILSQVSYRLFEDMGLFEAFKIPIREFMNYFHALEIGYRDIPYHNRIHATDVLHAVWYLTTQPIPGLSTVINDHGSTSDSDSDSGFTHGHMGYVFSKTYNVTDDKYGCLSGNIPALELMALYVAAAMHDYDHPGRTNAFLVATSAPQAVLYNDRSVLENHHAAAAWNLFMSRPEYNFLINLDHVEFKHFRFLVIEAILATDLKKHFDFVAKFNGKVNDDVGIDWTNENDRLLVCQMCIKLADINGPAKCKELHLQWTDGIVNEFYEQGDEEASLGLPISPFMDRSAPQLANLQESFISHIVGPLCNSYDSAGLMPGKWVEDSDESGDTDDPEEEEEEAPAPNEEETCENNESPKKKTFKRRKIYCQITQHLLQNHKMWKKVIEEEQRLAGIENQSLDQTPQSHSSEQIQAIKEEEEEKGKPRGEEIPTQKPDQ
Chain of Neuronal acetylcholine receptor subunit alpha-4 (P43681 whole entry): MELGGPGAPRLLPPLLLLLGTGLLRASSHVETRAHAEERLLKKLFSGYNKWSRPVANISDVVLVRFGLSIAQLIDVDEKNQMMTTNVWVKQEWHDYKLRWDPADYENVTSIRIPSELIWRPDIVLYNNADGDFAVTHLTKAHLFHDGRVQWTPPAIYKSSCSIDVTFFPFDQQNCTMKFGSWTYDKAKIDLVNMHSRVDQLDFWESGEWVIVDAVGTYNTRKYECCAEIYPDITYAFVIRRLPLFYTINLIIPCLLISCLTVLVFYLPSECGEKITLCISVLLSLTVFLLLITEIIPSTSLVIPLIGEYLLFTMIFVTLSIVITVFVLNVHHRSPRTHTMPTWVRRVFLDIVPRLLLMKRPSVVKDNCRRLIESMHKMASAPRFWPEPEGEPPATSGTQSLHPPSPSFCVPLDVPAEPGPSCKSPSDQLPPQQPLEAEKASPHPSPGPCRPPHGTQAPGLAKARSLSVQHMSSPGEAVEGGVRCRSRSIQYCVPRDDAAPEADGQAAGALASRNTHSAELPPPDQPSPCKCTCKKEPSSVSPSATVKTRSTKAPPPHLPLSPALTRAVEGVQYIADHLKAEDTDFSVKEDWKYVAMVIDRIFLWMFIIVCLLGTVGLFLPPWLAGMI
Chain of Muscarinic acetylcholine receptor M3 (P20309 whole entry): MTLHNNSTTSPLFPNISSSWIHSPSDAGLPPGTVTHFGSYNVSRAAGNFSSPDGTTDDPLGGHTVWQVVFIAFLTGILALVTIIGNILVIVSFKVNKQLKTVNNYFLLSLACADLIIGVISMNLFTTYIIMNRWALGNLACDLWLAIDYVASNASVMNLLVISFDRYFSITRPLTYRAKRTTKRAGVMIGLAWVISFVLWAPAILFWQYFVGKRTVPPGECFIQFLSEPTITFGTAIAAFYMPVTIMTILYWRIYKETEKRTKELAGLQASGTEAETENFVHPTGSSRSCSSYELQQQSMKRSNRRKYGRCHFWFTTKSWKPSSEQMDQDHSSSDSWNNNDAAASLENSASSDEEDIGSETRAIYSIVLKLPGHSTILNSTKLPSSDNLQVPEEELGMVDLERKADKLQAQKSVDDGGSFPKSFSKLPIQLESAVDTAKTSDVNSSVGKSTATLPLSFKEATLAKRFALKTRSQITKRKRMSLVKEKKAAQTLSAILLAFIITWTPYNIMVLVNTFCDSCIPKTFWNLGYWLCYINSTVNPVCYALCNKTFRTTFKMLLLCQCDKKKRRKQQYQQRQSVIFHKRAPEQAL
T1 sequence (P35372 whole entry): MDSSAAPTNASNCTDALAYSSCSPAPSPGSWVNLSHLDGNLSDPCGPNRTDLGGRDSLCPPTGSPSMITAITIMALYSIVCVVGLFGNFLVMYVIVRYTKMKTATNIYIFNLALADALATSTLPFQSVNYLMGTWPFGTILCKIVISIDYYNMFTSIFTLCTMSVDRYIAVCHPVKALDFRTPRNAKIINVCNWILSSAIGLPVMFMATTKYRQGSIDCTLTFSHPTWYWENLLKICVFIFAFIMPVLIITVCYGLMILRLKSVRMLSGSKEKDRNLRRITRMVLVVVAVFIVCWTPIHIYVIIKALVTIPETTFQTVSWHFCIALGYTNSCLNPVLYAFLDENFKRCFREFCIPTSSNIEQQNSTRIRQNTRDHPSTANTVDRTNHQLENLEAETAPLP
Chain of Cannabinoid receptor 1 (P21554 whole entry): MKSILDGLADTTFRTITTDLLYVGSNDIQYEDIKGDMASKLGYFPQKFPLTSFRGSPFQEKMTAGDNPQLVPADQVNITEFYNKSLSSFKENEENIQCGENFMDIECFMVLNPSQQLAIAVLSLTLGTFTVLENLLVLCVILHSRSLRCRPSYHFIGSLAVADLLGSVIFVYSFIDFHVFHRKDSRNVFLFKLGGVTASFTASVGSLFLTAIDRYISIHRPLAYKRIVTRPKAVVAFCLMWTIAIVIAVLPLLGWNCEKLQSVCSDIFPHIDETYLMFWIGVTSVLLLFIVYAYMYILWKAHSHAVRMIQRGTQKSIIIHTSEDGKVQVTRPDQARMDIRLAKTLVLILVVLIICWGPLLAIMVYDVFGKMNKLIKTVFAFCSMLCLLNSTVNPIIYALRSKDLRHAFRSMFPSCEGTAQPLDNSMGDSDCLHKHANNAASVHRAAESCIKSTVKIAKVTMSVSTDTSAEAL

Row | AC50 [1] [µM] | AC50 [2] [µM] | AC50 [3] [µM] | AC50 [4] [µM] | AC50 (Glucocorticoid receptor) [µM] | AC50 (Histamine H1 receptor) [µM] | AC50 [6] [µM] | AC50 (Endothelin-1 receptor) [µM] | AC50 (D(3) dopamine receptor) [µM] | AC50 [7] [µM] | AC50 (Cannabinoid receptor 1) [µM] | AC50 [8] [µM] | AC50 (Mu-type opioid receptor [9]) [µM] | AC50 [10] [µM] | SMILES | AC50 (Mu-type opioid receptor [5]) [µM]
1 | > 30 | > 10 | > 10 | > 10 |  |  | > 10 | > 30 | > 10 |  |  |  |  |  | C[C@H]1C[C@H]2[C@@H]3CCC4=CC(=O)C=C[C@]4(C)[C@@]3(Cl)[C@@H](O)C[C@]2(C)[C@@]1(O)C(=O)CO [BECLOMETHASONE] | > 30
2 | > 30 | > 30 | > 30 | > 30 | > 30 | > 30 | > 30 | > 30 | > 30 | > 30 | > 30 | > 30 | > 30 | > 30 | C[C@@H]1CCC[C@H](C)N1NC(=O)c1ccc(Cl)c(S(N)(=O)=O)c1 [CLOPAMIDE] | 
3 | > 30 | > 30 | > 30 | > 30 |  | > 30 | > 30 | > 30 | > 30 | > 30 | > 30 | > 30 | > 30 | > 30 | O=C(O)CSCC(=O)NC1CCSC1=O (centres undefined) [ERDOSTEINE] | 
4 | > 30 | > 30 | > 30 | > 30 |  | > 30 | > 30 | > 30 | > 30 | > 30 | > 30 | > 30 | > 30 | > 30 | COc1cccc(N(C)C(=S)Oc2ccc3c(c2)CCCC3)n1 [LIRANAFTATE] | 
5 | > 30 | 2.8 | > 30 | > 30 |  | > 30 | > 30 | > 30 | 4.6 | 15 | > 30 | > 30 | > 30 | > 30 | N=C(N)c1ccc2cc(OC(=O)c3ccc(N=C(N)N)cc3)ccc2c1 [NAFAMOSTAT] | 
6 | > 30 | > 30 | 0.72 | > 30 | > 30 | 11 | > 30 | > 30 | 1.6 | 2.2 | > 30 | > 30 | > 30 | > 30 | O=C(O)c1cc(O)c2c3nc4ccccc4oc-3cc(=O)c2n1 [PIRENOXINE] | 
7 | > 30 | > 30 | > 30 | > 30 | > 30 | > 30 | > 30 | > 30 | > 30 | > 30 | > 30 | > 30 | > 30 | > 30 | NS(=O)(=O)c1cc(C(=O)O)cc(N2CCCC2)c1Oc1ccccc1 [PIRETANIDE] | 
8 | > 30 | 13 | > 30 | > 30 | > 30 | > 30 | > 30 | > 30 | > 30 | > 30 | 11 | > 30 | > 30 | > 30 | CC(C)=CCOc1ccc(/C=C/C(=O)c2ccc(OCC=C(C)C)cc2OCC(=O)O)cc1 [SOFALCONE] | 

More lines, now with the values behind:

Row | SMILES | AC50 [1] [µM] | AC50 [2] [µM] | AC50 [3] [µM] | AC50 [4] [µM] | AC50 (Glucocorticoid receptor) [µM] | AC50 (Histamine H1 receptor) [µM] | AC50 [6] [µM] | AC50 (Endothelin-1 receptor) [µM] | AC50 (D(3) dopamine receptor) [µM] | AC50 [7] [µM] | AC50 (Cannabinoid receptor 1) [µM] | AC50 [8] [µM] | AC50 (Mu-type opioid receptor [9]) [µM] | AC50 [10] [µM] | AC50 (Mu-type opioid receptor [5]) [µM]
9 | C[C@]1(COc2ccc(N3CCC(Oc4ccc(OC(F)(F)F)cc4)CC3)cc2)Cn2cc([N+](=O)[O-])nc2O1 | > 30 | > 10 | > 10 | > 10 | > 30 | > 10 | > 10 | > 30 |  |  |  |  |  |  | > 10
10 | O=C(Nc1nc(-c2cc(Cl)cs2)c(N2CCN(C3CCCCC3)CC2)s1)c1cnc(N2CCC(C(=O)O)CC2)c(Cl)c1 [AVATROMBOPAG] | > 10 | > 10 | > 10 | > 10 |  | > 10 | > 10 | > 10 | > 10 | > 10 |  |  |  |  | > 10
11 | CN(C)C(=O)Oc1cc(OC(=O)N(C)C)cc(C(O)CNC(C)(C)C)c1 (centres undefined) [BAMBUTEROL] |  | > 30 |  |  | > 30 |  | > 30 | > 30 |  |  |  |  |  |  | 
12 | CO[C@@]1(NC(=O)CSCC#N)C(=O)N2C(C(=O)O)=C(CSc3nnnn3C)CS[C@@H]21 [CEFMETAZOLE] | > 30 |  |  | > 30 |  |  |  |  | > 30 |  | > 30 | > 30 | > 30 |  | 
13 | CO/N=C(\C(=O)N[C@@H]1C(=O)N2C(C(=O)[O-])=C(C[n+]3cccc4c3CCC4)CS[C@H]12)c1csc(N)n1 [CEFPIROME] | > 30 |  |  | > 30 |  | > 30 |  |  | > 30 | > 30 | > 30 | > 30 | > 30 | > 30 | 
14 | CC[C@H]1OC(=O)[C@H](C)[C@@H](O[C@H]2C[C@@](C)(OC)[C@@H](O)[C@H](C)O2)[C@H](C)[C@@H](O[C@@H]2O[C@H](C)C[C@H](N(C)C)[C@H]2O)[C@](C)(OC)C[C@@H](C)C(=O)[C@H](C)[C@@H](O)[C@]1(C)O [CLARITHROMYCIN] | > 30 | > 30 |  |  | > 30 |  | > 30 | > 30 |  |  | > 30 | > 30 | > 30 |  | 
15 | Oc1c(I)cc(Cl)c2cccnc12 [CLIOQUINOL] | > 30 |  |  | > 30 |  | > 30 |  |  | > 30 | > 30 | > 30 | > 30 | > 30 | > 30 | 
16 | c1ccc2c(CC3=NCCN3)cccc2c1 [NAPHAZOLINE] |  |  |  |  |  |  |  |  |  |  |  | 0.14 |  |  | 
